Where two headings read alike, the source gives them in different places.
Key:
[1] = system: MAC formation in normal human serum; experiment: Human serum MAC formation assay (zymosan-coated plates, 50% normal human serum); settings: 50% normal human serum with EGTA, 37° C. 30 minutes
In short: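 Compounds preincubated 15 min at RT with 50% normal human serum in gelatin buffer plus 20 mM EGTA, then complement activated 30 min at 37 °C on zymosan-coated plates. C9 neoepitope ELISA, fluorogenic readout. Percent inhibition vs EDTA-serum baseline and EGTA-serum maximum; IC50 from 4-parameter fit of 10-point curves.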

[2] = biological target: human C3bBb (Homo sapiens (Human), UniProt P00751); experiment: Human C3bBb enzyme assay (C3a generation from C3, ELISA); assay type: biochemical
In short: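 C3bBb was preformed from human C3b, CFB and CFD at 1 μM each (30 min, RT) in PBS pH 7.4 with 100 μM NiCl2 and 0.05% CHAPS. Then 3 nM complex with 1 μM human C3 was incubated with compound for 1 h at RT. C3a was quantified by ELISA against a standard curve, and IC50 came from a 10-point 4-parameter fit.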

[3] = starred values: assay conducted with 1 nM C3b:Bb enzyme, read-out: Human C3b:Bb IC50 Avg
[4] = 3 nM C3bBb complex, 1 μM human C3, 1 hour room temperature, read-out: Human C3b:Bb IC50 Avg

Chain of human C3bBb (P00751 260-764): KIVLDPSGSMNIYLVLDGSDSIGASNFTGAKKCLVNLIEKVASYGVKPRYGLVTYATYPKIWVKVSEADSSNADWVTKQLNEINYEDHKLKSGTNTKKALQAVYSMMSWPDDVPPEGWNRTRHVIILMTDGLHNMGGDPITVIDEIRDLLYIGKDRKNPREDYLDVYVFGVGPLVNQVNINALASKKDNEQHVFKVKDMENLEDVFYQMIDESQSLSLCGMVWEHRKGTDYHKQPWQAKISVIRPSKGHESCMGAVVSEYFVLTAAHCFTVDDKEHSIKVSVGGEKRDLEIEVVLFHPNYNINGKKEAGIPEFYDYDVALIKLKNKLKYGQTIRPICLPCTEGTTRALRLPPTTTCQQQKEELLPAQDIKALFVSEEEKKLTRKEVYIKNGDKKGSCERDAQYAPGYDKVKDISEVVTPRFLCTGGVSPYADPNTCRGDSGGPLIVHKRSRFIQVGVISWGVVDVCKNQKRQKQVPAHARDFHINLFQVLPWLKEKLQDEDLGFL
Chain of human C3bBb (P01024 23-667 partner): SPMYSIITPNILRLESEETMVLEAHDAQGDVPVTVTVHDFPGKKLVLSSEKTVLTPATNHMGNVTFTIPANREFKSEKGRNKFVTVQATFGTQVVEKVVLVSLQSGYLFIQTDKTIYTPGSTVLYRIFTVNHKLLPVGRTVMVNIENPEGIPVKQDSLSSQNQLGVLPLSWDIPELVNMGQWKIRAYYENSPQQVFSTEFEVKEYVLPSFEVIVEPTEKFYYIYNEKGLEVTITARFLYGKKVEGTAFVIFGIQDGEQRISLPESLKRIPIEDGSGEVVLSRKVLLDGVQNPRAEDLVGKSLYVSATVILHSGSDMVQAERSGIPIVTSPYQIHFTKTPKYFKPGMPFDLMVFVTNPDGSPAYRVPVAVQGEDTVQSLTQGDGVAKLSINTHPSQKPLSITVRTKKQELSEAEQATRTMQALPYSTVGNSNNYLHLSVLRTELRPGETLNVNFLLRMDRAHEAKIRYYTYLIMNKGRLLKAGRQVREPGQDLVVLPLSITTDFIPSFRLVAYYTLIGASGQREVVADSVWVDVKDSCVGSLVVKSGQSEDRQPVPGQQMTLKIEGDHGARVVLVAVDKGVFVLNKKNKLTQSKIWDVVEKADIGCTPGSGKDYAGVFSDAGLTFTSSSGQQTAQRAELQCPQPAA
Chain of human C3bBb (P01024 749-1663 partner): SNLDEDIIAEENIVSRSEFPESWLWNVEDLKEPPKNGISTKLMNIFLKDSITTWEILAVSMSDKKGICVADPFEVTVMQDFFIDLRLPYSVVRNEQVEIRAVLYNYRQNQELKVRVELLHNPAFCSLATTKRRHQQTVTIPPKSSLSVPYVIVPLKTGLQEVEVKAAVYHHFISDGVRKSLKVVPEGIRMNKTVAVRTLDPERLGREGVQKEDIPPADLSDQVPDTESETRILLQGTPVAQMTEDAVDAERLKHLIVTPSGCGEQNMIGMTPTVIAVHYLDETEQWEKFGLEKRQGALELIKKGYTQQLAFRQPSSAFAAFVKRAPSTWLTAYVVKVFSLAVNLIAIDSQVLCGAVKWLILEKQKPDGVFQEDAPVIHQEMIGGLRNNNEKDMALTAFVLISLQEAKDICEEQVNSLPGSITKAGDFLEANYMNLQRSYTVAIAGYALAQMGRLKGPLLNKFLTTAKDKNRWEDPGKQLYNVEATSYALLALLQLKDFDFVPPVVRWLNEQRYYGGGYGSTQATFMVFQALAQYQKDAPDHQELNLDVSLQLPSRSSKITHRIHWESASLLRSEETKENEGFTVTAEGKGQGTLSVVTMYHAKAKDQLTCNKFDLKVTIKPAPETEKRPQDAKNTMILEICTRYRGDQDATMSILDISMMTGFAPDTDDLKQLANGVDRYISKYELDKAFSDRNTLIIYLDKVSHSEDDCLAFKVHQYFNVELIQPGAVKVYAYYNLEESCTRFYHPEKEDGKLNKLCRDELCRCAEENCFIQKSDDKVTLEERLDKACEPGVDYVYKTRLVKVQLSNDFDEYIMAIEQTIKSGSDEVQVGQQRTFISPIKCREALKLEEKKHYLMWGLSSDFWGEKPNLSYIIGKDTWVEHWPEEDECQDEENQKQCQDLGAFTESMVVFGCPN

For `COc1cc(C)c2[nH]ccc2c1CN1CC[C@]2(C[C@H]1c1ccc(C(=O)O)cc1)C[C@@H](OC(F)F)C2` (single isomer, unassigned) [Example 56, 4-((2R,4s,6S)-2-(difluoromethoxy)-7-((5-methoxy-7-methyl-1H-indol-4-yl)methyl)-7-azaspiro[3.5]nonan-6-yl)benzoic acid or 4-((2S,4r,6S)-2-(difluoromethoxy)-7-((5-methoxy-7-methyl-1H-indol-4-yl)methyl)-7-azaspiro[3.5]nonan-6-yl)benzoic acid], the IC50 [1] was < 100 nM and the IC50 [2, 3] was < 10 nM.

With `COc1cc(C)c2[nH]ccc2c1CN1CC[C@]2(C[C@H]1c1ccc(C(=O)O)cc1)C[C@@H](C(F)(F)F)C2` (single isomer, unassigned) [Example 49, 4-((2R,4s,6S)-7-((5-methoxy-7-methyl-1H-indol-4-yl)methyl)-2-(trifluoromethyl)-7-azaspiro[3.5]nonan-6-yl)benzoic acid or 4-((2S,4r,6S)-7-((5-methoxy-7-methyl-1H-indol-4-yl)methyl)-2-(trifluoromethyl)-7-azaspiro[3.5]nonan-6-yl)benzoic acid] the IC50 [1] was < 100 nM and the IC50 [2, 3] was < 10 nM.

With `COc1cc(C)c2[nH]ccc2c1CN1CCN(CC(F)F)C[C@H]1c1ccc(C(=O)O)cc1` [Example 66, (R)-4-(4-(2,2-difluoroethyl)-1-((5-methoxy-7-methyl-1H-indol-4-yl)methyl)piperazin-2-yl)benzoic acid] the IC50 [1] was 100 to 200 nM and the IC50 [2, 3] was 25 to 50 nM.

With `COc1cc(C)c2[nH]ccc2c1CN1CC[C@H](N2CC(C(F)(F)F)C2)C[C@H]1c1ccc(C(=O)O)cc1` [Example 81, 4-((2S,4S)-1-((5-methoxy-7-methyl-1H-indol-4-yl)methyl)-4-(3-(trifluoromethyl)azetidin-1-yl)piperidin-2-yl)benzoic acid] the IC50 [1] was < 100 nM and the IC50 [2, 3] was < 10 nM.

`COc1cc(C)c2[nH]ccc2c1CN1CC[C@H](NCC2CC2)C[C@H]1c1ccc(C(=O)O)cc1` [Example 26, 4-((2S,4S)-4-((cyclopropylmethyl)amino)-1-((5-methoxy-7-methyl-1H-indol-4-yl)methyl)piperidin-2-yl)benzoic acid] showed an IC50 [1] of 100 to 200 nM and an IC50 [2, 3] of 50 to 100 nM.

`COc1cc(C)c2[nH]ccc2c1CN1CCN(CC2(F)COC2)C[C@H]1c1ccc(C(=O)O)cc1` [Example 69, (R)-4-(4-((3-fluorooxetan-3-yl)methyl)-1-((5-methoxy-7-methyl-1H-indol-4-yl)methyl)piperazin-2-yl)benzoic acid] was tested, and the IC50 [1] was 100 to 200 nM and the IC50 [2, 3] was 50 to 100 nM.

In the case of `COc1cc(C)c2[nH]ccc2c1CN1CCC2(C[C@H]1c1ccc(C(=O)O)c(F)c1)CC(F)(F)C2` [Example 50, (S)-4-(2,2-difluoro-7-((5-methoxy-7-methyl-1H-indol-4-yl)methyl)-7-azaspiro[3.5]nonan-6-yl)-2-fluorobenzoic acid], the IC50 [1] is reported as < 100 nM and the IC50 [2, 3] is reported as < 10 nM.

For `COc1cc(C)c2[nH]ccc2c1CN1CC[C@H](N2CCCC2=O)C[C@H]1c1ccc(C(=O)O)cc1` (racemic) [Example 12, (±)-trans-4-(1-((5-methoxy-7-methyl-1H-indol-4-yl)methyl)-4-(2-oxopyrrolidin-1-yl)piperidin-2-yl)benzoic acid], the IC50 [1] was 300 to 500 nM and the IC50 ([2]; Human C3b:Bb IC50 Avg (nM), 3 nM C3bBb complex, 1 μM human C3, 1 hour room temperature) was > 100 nM.

For `COc1cc(C)c2[nH]ccc2c1CN1CC[C@H](n2cc(F)cn2)C[C@H]1c1ccc(C(=O)O)cc1` [Example 1, 4-((2S,4S)-4-(4-fluoro-1H-pyrazol-1-yl)-1-((5-methoxy-7-methyl-1H-indol-4-yl)methyl)piperidin-2-yl)benzoic acid], the IC50 [1] was > 500 nM and the IC50 [2, 4] was 50 to 100 nM.

`COc1cc(C)c2[nH]ccc2c1CN1CC[C@H](NCC(F)F)C[C@H]1c1ccc(C(=O)O)cc1` [Example 22, 4-((2S,4S)-4-((2,2-difluoroethyl)amino)-1-((5-methoxy-7-methyl-1H-indol-4-yl)methyl)piperidin-2-yl)benzoic acid] was tested, and the IC50 [1] was 100 to 200 nM and the IC50 [2, 3] was < 10 nM.

Work on `COc1cc(C)c2[nH]cc(Cl)c2c1CN1CC[C@H](N2CC(C(F)(F)F)C2)C[C@H]1c1ccc(C(=O)O)cc1` [Example 75, 4-((2S,4S)-1-((3-chloro-5-methoxy-7-methyl-1H-indol-4-yl)methyl)-4-(3-(trifluoromethyl)azetidin-1-yl)piperidin-2-yl)benzoic acid] yielded an IC50 [1] of 200 to 300 nM and an IC50 [2, 3] of 10 to 25 nM.

For `COc1cc(C)c2[nH]ccc2c1CN1CC[C@H](N2CC(C(F)F)C2)C[C@H]1c1ccc(C(=O)O)cc1` [Example 74, 4-((2S,4S)-4-(3-(difluoromethyl)azetidin-1-yl)-1-((5-methoxy-7-methyl-1H-indol-4-yl)methyl)piperidin-2-yl)benzoic acid], the IC50 [1] was 100 to 200 nM and the IC50 [2, 3] was < 10 nM.

For `COc1cc(C)c2[nH]ccc2c1CN1CC[C@]2(CCC(F)(F)C2)C[C@H]1c1ccc(C(=O)O)cc1` (single isomer, unassigned) [Example 35, 4-(5R,7S)-(2,2-difluoro-8-((5-methoxy-7-methyl-1H-indol-4-yl)methyl)-8-azaspiro[4.5]decan-7-yl)benzoic acid or 4-(5S,7S)-(2,2-difluoro-8-((5-methoxy-7-methyl-1H-indol-4-yl)methyl)-8-azaspiro[4.5]decan-7-yl)benzoic acid], the IC50 [1] was < 100 nM and the IC50 [2, 3] was < 10 nM.

`COc1cc(C)c2[nH]ccc2c1CN1CC[C@@H](OC(F)F)C[C@@H]1c1ccc(C(=O)O)cc1` [Example 29, 4-((2R,4R)-4-(difluoromethoxy)-1-((5-methoxy-7-methyl-1H-indol-4-yl)methyl)piperidin-2-yl)benzoic acid] was tested, and the IC50 [1] was > 500 nM and the IC50 [2, 4] was > 100 nM.

In the case of `COc1cc(C)c2[nH]ccc2c1CN1CC[C@H](CC2CC2)C[C@H]1c1ccc(C(=O)O)cc1` [Example 44, 4-((2S,4S)-4-(cyclopropylmethyl)-1-((5-methoxy-7-methyl-1H-indol-4-yl)methyl)piperidin-2-yl)benzoic acid], the IC50 [1] is reported as < 100 nM and the IC50 [2, 3] is reported as < 10 nM.

With `COc1cc(C)c2[nH]ccc2c1CN1CC2(CCC2)[C@H]1c1ccc(C(=O)O)cc1` [Example 40, (R)-4-(2-((5-methoxy-7-methyl-1H-indol-4-yl)methyl)-2-azaspiro[3.3]heptan-1-yl)benzoic acid] the IC50 [1] was 300 to 500 nM and the IC50 [2, 4] was > 100 nM.

In the case of `COc1cc(C)c2[nH]ccc2c1CN1CCN(CC2CC(F)(F)C2)C[C@H]1c1ccc(C(=O)O)cc1` [Example 67, (R)-4-(4-((3,3-difluorocyclobutyl)methyl)-1-((5-methoxy-7-methyl-1H-indol-4-yl)methyl)piperazin-2-yl)benzoic acid], the IC50 [1] is reported as 300 to 500 nM and the IC50 [2, 3] is reported as 50 to 100 nM.

For `COc1cc(C)c2[nH]ccc2c1CN1CC[C@]2(C[C@H]1c1ccc(C(=O)O)cc1)C[C@@H](C(F)F)C2` (single isomer, unassigned) [Example 46, 4-((2R,4s,6S)-2-(difluoromethyl)-7-((5-methoxy-7-methyl-1H-indol-4-yl)methyl)-7-azaspiro[3.5]nonan-6-yl)benzoic acid or 4-((2S,4r,6S)-2-(difluoromethyl)-7-((5-methoxy-7-methyl-1H-indol-4-yl)methyl)-7-azaspiro[3.5]nonan-6-yl)benzoic acid], the IC50 [1] was 100 to 200 nM and the IC50 [2, 3] was < 10 nM.

Work on `COc1cc(C)c2[nH]ccc2c1CN1CC[C@]2(C[C@H]1c1ccc(C(=O)O)cc1)C[C@@H](O)C2` (stereo in doubt) [Example 64, 4-((2R,4s,6S)-4-(2-hydroxy-7-((5-methoxy-7-methyl-1H-indol-4-yl)methyl)-7-azaspiro[3.5]nonan-6-yl)benzoic acid and 4-((2S,4r,6S)-2-hydroxy-7-((5-methoxy-7-methyl-1H-indol-4-yl)methyl)-7-azaspiro[3.5]nonan-6-yl)benzoic acid] yielded an IC50 [1] of 200 to 300 nM and an IC50 [2, 3] of 10 to 25 nM.

`COc1cc(C)c2[nH]cc(F)c2c1CN1CCC2(C[C@H]1c1ccc(C(=O)O)cc1)CC(F)(F)C2` [Example 54, (S)-4-(2,2-difluoro-7-((3-fluoro-5-methoxy-7-methyl-1H-indol-4-yl)methyl)-7-azaspiro[3.5]nonan-6-yl)benzoic acid] was tested, and the IC50 [1] was < 100 nM and the IC50 [2, 3] was < 10 nM.

For `COc1cc(C)c2[nH]ccc2c1CN1CC[C@H](NC2CC(F)(F)C2)C[C@H]1c1ccc(C(=O)O)cc1` [Example 19, 4-((2S,4S)-4-((3,3-difluorocyclobutyl)amino)-1-((5-methoxy-7-methyl-1H-indol-4-yl)methyl)piperidin-2-yl)benzoic acid], the IC50 [1] was < 100 nM and the IC50 [2, 3] was < 10 nM.

For `COc1cc(C)c2[nH]ccc2c1CN1CC[C@H](OCC(F)(F)F)C[C@H]1c1ccc(C(=O)O)cc1` [Example 85, 4-((2S,4S)-1-((5-methoxy-7-methyl-1H-indol-4-yl)methyl)-4-(2,2,2-trifluoroethoxy)piperidin-2-yl)benzoic acid], the IC50 [1] was 100 to 200 nM and the IC50 [2, 3] was < 10 nM.

In the case of `COc1cc(C)c2[nH]ccc2c1CN1CC[C@H](N2CC(C(F)(F)F)C2)C[C@H]1c1ccc(C(=O)O)cc1` (racemic) [Example 71, (±)-trans-4-1-((5-methoxy-7-methyl-1H-indol-4-yl)methyl)-4-(3-(trifluoromethyl)azetidin-1-yl)piperidin-2-yl)benzoic acid], the IC50 [1] is reported as 300 to 500 nM and the IC50 [2, 3] is reported as < 10 nM.

In the case of `COc1cc(C)c2[nH]ccc2c1CN1CC[C@H](c2ccccc2)C[C@H]1c1ccc(C(=O)O)cc1` (racemic) [Example 37, (±)-trans-4-(1-((5-methoxy-7-methyl-1H-indol-4-yl)methyl)-4-phenylpiperidin-2-yl)benzoic acid], the IC50 [1] is reported as > 500 nM and the IC50 [2, 4] is reported as > 100 nM.

Source: patent US20250289804A1, “SUBSTITUTED INDOLE COMPOUNDS AND METHODS OF USE THEREOF” (NOVARTIS PHARMA AG, priority 2021, published 2025)
